Experimental data from PubChem BioAssay AID1919004 (Molecular Pharmacology Branch, DTP, NCI, 2023).
pIC50: −log10 of the molar value.

System: 883617-216-R-J1-PDC complex spheroids, growth, % test/control
Assay: Anticancer human tumor 883617-216-R-J1-PDC patient-derived bladder carcinoma cell line growth inhibition [AhR]
Settings: for pIC50: curve of first compound; for viability, T/C: stronger effect = lower value
Outline: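 Spheroids combined tumor cells with HUVEC endothelial cells and human MSCs as stroma. AhR antagonists were paired with standard or investigational drugs, each dosed in half-log steps down from near clinical Cmax, or from 10 microM where Cmax was unknown.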
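Note: exposure lasted 7 days after dosing on day 3 of spheroid growth.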

CCN(c1cc(-c2ccc(CN3CCOCC3)cc2)cc(C(=O)NCc2c(C)cc(C)[nH]c2=O)c1C)C1CCOCC1 + Cc1cncc(-c2nc(NCCc3c[nH]c4ccccc34)c3ncn(C(C)C)c3n2)c1
pIC50 (second compound 0.1 µM): < 5.52
pIC50 (second compound 0.316 µM): < 5.52
pIC50 (second compound 1 µM): < 5.52
pIC50 (second compound 3.16 µM): < 5.52
pIC50 (second compound 10 µM): > 8.02
viability, T/C (second compound 0.1 µM, first compound 0.00949 µM): 93.3%
viability, T/C (second compound 0.1 µM, first compound 0.03 µM): 109%
viability, T/C (second compound 0.1 µM, first compound 0.0949 µM): 94.1%
viability, T/C (second compound 0.1 µM, first compound 0.3 µM): 96.6%
viability, T/C (second compound 0.1 µM, first compound 0.949 µM): 98.2%
viability, T/C (second compound 0.1 µM, first compound 3 µM): 91.6%
viability, T/C (second compound 0.316 µM, first compound 0.00949 µM): 103%
viability, T/C (second compound 0.316 µM, first compound 0.03 µM): 94.4%
viability, T/C (second compound 0.316 µM, first compound 0.0949 µM): 97.1%
viability, T/C (second compound 0.316 µM, first compound 0.3 µM): 96.2%
viability, T/C (second compound 0.316 µM, first compound 0.949 µM): 98.6%
viability, T/C (second compound 0.316 µM, first compound 3 µM): 96.4%
viability, T/C (second compound 1 µM, first compound 0.00949 µM): 103%
viability, T/C (second compound 1 µM, first compound 0.03 µM): 102%
viability, T/C (second compound 1 µM, first compound 0.0949 µM): 110%
viability, T/C (second compound 1 µM, first compound 0.3 µM): 105%
viability, T/C (second compound 1 µM, first compound 0.949 µM): 97.8%
viability, T/C (second compound 1 µM, first compound 3 µM): 107%
viability, T/C (second compound 3.16 µM, first compound 0.00949 µM): 93.7%
viability, T/C (second compound 3.16 µM, first compound 0.03 µM): 102%
viability, T/C (second compound 3.16 µM, first compound 0.0949 µM): 112%
viability, T/C (second compound 3.16 µM, first compound 0.3 µM): 96.5%
viability, T/C (second compound 3.16 µM, first compound 0.949 µM): 107%
viability, T/C (second compound 3.16 µM, first compound 3 µM): 110%
viability, T/C (second compound 10 µM, first compound 0.00949 µM): 52.3%
viability, T/C (second compound 10 µM, first compound 0.03 µM): 46.9%
viability, T/C (second compound 10 µM, first compound 0.0949 µM): 47.2%
viability, T/C (second compound 10 µM, first compound 0.3 µM): 43.2%
viability, T/C (second compound 10 µM, first compound 0.949 µM): 27.3%
viability, T/C (second compound 10 µM, first compound 3 µM): 15.5%

Cn1ncnc1C1c2n[nH]c(=O)c3cc(F)cc(c23)NC1c1ccc(F)cc1 (stereo not given) + Cc1cncc(-c2nc(NCCc3c[nH]c4ccccc34)c3ncn(C(C)C)c3n2)c1
pIC50 (second compound 0.1 µM): < 7.00
pIC50 (second compound 0.316 µM): < 7.00
pIC50 (second compound 1 µM): < 7.00
pIC50 (second compound 3.16 µM): < 7.00
pIC50 (second compound 10 µM): < 7.00
viability, T/C (second compound 0.1 µM, first compound 0.000316 µM): 97.3%
viability, T/C (second compound 0.1 µM, first compound 0.001 µM): 97.5%
viability, T/C (second compound 0.1 µM, first compound 0.00316 µM): 82.8%
viability, T/C (second compound 0.1 µM, first compound 0.01 µM): 80.6%
viability, T/C (second compound 0.1 µM, first compound 0.0316 µM): 78%
viability, T/C (second compound 0.1 µM, first compound 0.1 µM): 75.2%
viability, T/C (second compound 0.316 µM, first compound 0.000316 µM): 90.7%
viability, T/C (second compound 0.316 µM, first compound 0.001 µM): 97.4%
viability, T/C (second compound 0.316 µM, first compound 0.00316 µM): 90.1%
viability, T/C (second compound 0.316 µM, first compound 0.01 µM): 86.5%
viability, T/C (second compound 0.316 µM, first compound 0.0316 µM): 90.1%
viability, T/C (second compound 0.316 µM, first compound 0.1 µM): 80.9%
viability, T/C (second compound 1 µM, first compound 0.000316 µM): 100%
viability, T/C (second compound 1 µM, first compound 0.001 µM): 101%
viability, T/C (second compound 1 µM, first compound 0.00316 µM): 97.2%
viability, T/C (second compound 1 µM, first compound 0.01 µM): 87.5%
viability, T/C (second compound 1 µM, first compound 0.0316 µM): 82.7%
viability, T/C (second compound 1 µM, first compound 0.1 µM): 88.7%
viability, T/C (second compound 3.16 µM, first compound 0.000316 µM): 106%
viability, T/C (second compound 3.16 µM, first compound 0.001 µM): 106%
viability, T/C (second compound 3.16 µM, first compound 0.00316 µM): 102%
viability, T/C (second compound 3.16 µM, first compound 0.01 µM): 103%
viability, T/C (second compound 3.16 µM, first compound 0.0316 µM): 98.2%
viability, T/C (second compound 3.16 µM, first compound 0.1 µM): 95.1%
viability, T/C (second compound 10 µM, first compound 0.000316 µM): 51%
viability, T/C (second compound 10 µM, first compound 0.001 µM): 56.3%
viability, T/C (second compound 10 µM, first compound 0.00316 µM): 56.5%
viability, T/C (second compound 10 µM, first compound 0.01 µM): 61.2%
viability, T/C (second compound 10 µM, first compound 0.0316 µM): 56.3%
viability, T/C (second compound 10 µM, first compound 0.1 µM): 62.6%
